Tests used:
Assay type in all cases: biochemical
GST-VEGFR2 = target: T1, GST-VEGFR2 (Homo sapiens, UniProt P35968); experiment: VEGF-R2 Enzyme Assay (VEGF-E2), LANCE method; details: for IC50: read-out: VEGFR2 PIC50 VEGFR-E2 assay
T1 construct: GST-VEGFR2, baculovirus expressed recombinant constructs of the intracellular domains; made in house

Recombinant GST-Tie2 = Recombinant GST-Tie2 (Homo sapiens, UniProt Q02763); experiment: Tie2 Fluorescence Polarization Kinase Activity Assay (TIE2-FP)
Description: Tie2 Fluorescence Polarization Kinase Activity Assay: (TIE2-FP)
Activation of Recombinant Tie2 Activation:
Recombinant GST-Tie2 is activated by incubating the enzyme in 20 mM Tris-HCl, pH 7.5, 12 mM MgCl2, 100 mM NaCl, 20 μM sodium vanidate, 1 mM DTT and 300 μM ATP at room temperature for 2 hours. The activation mixture is then passed through a NAP-25 desalting column (Pharmacia Biotech cat. no. 17-0852-02) to remove the free ATP. The activated enzyme is stored as aliquots at −80° C. in 20 mM Tris-HCl, pH 7.5 and 100 mM NaCl.
The final assay conditions are 50 mM HEPES, pH 7.5, 5% DMSO (when screening compounds), 200 μM ATP, 5 mM MgCl2, 1 mM DTT, 50 μM sodium vanidate, 1 nM activated enzyme, and 200 μM peptide. IC50's of compounds are measured under subsaturating ATP (200 μM) and varying concentrations of activated Tie2 and peptide substrate (RFWKYEFWR-OH; MW 1873 Da, TFA salt). Panvera Anti-phosphotyrosine antibody (Cat#P2840) and PTK Green Tracer (Cat#P2842) are used to detect the phosphorylated peptide. Polarization is measured on a TECAN Polarion in 138-second cycles for 30 minutes at room temperature. IC50's are then determined from the % polarization using normal calculation methods. The IC50 values are converted to pIC50 values, i.e., −log IC50 in Molar concentration.

[1] = target: T2, catalytic domain of human VEGFR3 (Homo sapiens, UniProt P35916, H890Q); experiment: VEGFR-3 Homogenous Time-Resolved Fluorescence Assay (VEGFR-3-HTRF)
T2 construct: made in house; host or cells: Sf9 insect cells (baculovirus, pFastBac1)
How it was run: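 GST-tagged human VEGFR3 catalytic domain (aa 819–1298, Sf9-expressed), pre-autophosphorylated 45 min with ATP/Mg, then 1 nM enzyme with 0.36 μM biotinylated peptide, 75 μM ATP, 10 mM MgCl2, pH 7.2, 1.5 h at room temperature. EDTA stop; HTRF detection; IC50 from hyperbolic fit of % control.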

[2] = target: T3, GST-TIE2 (intracellular domains of human TIE2) (Homo sapiens, UniProt Q02763); experiment: TIE-2 Enzyme Assay (TIE2-E2), LANCE method; details: read-out: TIE2 PIC50 TIE2-E2 assay
T3 construct: made in house
How it was run: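 GST-tagged human TIE2 intracellular domain (aa 762–1104), preactivated 2 h with 80 μM ATP, then 5 nM enzyme run 2 h at room temperature with 1 μM biotinylated D1–15 peptide, 80 μM ATP, HEPES pH 7.4, 2.4% DMSO. Phosphotyrosine detected by LANCE (Eu anti-pTyr/streptavidin-APC) after EDTA stop; IC50 by nonlinear regression, reported as pIC50.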

T2 sequence (P35916 with tags, fused parts or gaps isoform P35916-1 H890Q): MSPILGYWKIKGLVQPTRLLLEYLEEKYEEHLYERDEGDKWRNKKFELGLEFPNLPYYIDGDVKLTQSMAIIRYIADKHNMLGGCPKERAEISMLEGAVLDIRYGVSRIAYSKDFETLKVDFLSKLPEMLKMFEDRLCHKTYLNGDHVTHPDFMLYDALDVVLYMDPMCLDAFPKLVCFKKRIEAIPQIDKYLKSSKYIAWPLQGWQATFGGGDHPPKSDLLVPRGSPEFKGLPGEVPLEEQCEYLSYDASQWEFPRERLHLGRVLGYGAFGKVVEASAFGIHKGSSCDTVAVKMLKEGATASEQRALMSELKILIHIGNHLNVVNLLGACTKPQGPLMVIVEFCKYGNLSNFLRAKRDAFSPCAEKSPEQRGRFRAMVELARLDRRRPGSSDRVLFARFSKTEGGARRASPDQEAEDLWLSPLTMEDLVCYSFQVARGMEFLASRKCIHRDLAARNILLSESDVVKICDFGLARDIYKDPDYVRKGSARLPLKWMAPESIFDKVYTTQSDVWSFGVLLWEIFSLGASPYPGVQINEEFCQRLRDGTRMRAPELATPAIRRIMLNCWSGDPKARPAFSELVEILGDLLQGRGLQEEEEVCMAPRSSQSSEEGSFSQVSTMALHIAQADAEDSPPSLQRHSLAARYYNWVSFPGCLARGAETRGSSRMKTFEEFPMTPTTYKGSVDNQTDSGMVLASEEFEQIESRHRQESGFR
T1 sequence (P35968 786-1356 limits assumed): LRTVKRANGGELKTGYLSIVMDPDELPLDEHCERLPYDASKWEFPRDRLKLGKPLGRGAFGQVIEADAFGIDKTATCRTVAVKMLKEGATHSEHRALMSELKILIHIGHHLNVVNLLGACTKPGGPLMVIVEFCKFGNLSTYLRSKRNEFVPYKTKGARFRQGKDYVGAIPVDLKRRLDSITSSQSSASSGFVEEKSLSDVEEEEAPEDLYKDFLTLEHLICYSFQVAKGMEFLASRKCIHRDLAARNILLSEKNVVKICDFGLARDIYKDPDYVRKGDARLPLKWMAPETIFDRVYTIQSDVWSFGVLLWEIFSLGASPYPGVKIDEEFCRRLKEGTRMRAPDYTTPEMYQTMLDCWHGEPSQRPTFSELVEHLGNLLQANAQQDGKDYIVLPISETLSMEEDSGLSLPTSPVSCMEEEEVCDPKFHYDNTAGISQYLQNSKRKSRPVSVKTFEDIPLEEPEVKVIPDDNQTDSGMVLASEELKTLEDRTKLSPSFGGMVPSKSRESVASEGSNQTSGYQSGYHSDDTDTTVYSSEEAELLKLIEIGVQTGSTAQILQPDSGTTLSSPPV
Recombinant GST-Tie2, sequence (Q02763 23-1124): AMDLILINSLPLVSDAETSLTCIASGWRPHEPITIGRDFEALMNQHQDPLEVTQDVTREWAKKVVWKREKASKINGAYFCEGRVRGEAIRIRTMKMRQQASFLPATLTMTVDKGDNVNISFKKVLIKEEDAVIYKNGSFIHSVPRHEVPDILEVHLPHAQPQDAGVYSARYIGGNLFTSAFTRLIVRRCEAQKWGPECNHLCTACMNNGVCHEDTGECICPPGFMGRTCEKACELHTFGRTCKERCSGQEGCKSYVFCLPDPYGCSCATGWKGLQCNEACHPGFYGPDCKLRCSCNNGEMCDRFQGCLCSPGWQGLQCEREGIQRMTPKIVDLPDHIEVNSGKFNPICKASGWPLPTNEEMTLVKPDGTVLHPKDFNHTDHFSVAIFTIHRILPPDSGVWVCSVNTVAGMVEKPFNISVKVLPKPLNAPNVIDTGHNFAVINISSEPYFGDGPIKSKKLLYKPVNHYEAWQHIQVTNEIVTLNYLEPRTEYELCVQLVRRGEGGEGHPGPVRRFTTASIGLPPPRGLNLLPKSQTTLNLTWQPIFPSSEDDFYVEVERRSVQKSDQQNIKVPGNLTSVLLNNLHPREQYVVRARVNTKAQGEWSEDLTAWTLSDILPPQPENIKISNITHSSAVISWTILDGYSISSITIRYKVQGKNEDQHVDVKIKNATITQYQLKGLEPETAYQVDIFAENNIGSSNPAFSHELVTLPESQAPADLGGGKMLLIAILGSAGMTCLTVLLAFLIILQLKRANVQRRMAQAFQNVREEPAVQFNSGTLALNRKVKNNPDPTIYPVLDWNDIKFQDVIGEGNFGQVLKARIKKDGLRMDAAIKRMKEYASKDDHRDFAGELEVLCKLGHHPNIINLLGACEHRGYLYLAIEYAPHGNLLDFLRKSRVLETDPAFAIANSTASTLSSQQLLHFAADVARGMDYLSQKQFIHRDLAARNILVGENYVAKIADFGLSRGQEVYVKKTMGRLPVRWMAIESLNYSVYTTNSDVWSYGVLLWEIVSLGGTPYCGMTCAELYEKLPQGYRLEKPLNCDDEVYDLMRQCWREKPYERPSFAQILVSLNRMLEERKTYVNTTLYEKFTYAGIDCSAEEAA
T3 sequence (Q02763 762-1104): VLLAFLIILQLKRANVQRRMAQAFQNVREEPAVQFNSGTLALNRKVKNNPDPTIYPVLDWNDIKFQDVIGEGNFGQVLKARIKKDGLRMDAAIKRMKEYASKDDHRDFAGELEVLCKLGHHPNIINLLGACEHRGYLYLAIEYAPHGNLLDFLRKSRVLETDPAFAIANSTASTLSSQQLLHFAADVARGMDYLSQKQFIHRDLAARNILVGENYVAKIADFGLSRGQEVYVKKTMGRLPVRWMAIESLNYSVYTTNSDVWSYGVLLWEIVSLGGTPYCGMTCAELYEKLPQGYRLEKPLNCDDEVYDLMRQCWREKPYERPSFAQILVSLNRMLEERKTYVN

Row | IC50 (GST-VEGFR2) [µM] | inhibition at 10 µM (Recombinant GST-Tie2) [%] | IC50 [2] [µM] | Molecule | VEGFR2 PIC50 VEGFR-E2 assay (GST-VEGFR2) | TIE2 % inhibition (at 10 μM) TIE2-FP assay (Recombinant GST-Tie2; at 10 μM) [%] | VEGFR3 PIC50 VEGFR-3-HTRF assay [1] | IC50 (Recombinant GST-Tie2) [nM]
1 | – | – | – | 1-{4-[Benzyl-(2-morpholin-4-yl-ethylamino)-1H-pyrazolo[3,4-d]pyrimidin-3-yl]-phenyl}-3-(fluoro-trifluoromethyl-phenyl)-thiourea [Example 51] | + (+ = PIC50 = 5.00 to less than 6.00) | 0 | + (+ = PIC50 = 5.00 to less than 6.00) | –
2 | – | – | – | CCN(CC)CCCCNc1ncnc2c1c(-c1ccc(NC(=O)Nc3cc(C(F)(F)F)ccc3F)cc1)nn2C [Example 34, 1-{4-[(4-Diethylamino-butylamino)-methyl-1H-pyrazolo[3,4-d]pyrimidin-3-yl]-phenyl}-3-(2-fluoro-5-trifluoromethyl-phenyl)-urea] | + (+ = PIC50 = 5.00 to less than 6.00) | – | + (+ = PIC50 = 5.00 to less than 6.00) | < 100
3 | – | – | – | O=C(Nc1ccc(-c2n[nH]c3ncnc(N(CCN4CCOCC4)Cc4ccccc4)c23)cc1)Nc1cc(C(F)(F)F)ccc1F [Example 50, 1-{4-[Benzyl-(2-morpholin-4-yl-ethylamino)-1H-pyrazolo[3,4-d]pyrimidin-3-yl]-phenyl}-3-(fluoro-trifluoromethyl-phenyl)-urea] | ++ (++ = PIC50 = 6.00 to less than 7.00) | – | + (+ = PIC50 = 5.00 to less than 6.00) | < 100
4 | – | – | – | CCc1cccc(NC(=O)Nc2ccc(-c3nn(Cc4ccccc4)c4nc(NCCN5CCOCC5)ncc34)cc2)c1 [Example 52, 1-{4-[Benzyl-(2-morpholin-4-yl-ethylamino)-1H-pyrazolo[3,4-d]pyrimidin-3-yl]-phenyl}-3-(ethyl-phenyl)-urea] | + (+ = PIC50 = 5.00 to less than 6.00) | – | + (+ = PIC50 = 5.00 to less than 6.00) | 100 to 300
5 | > 10 | 41 | – | Cc1cc(-c2nn(C)c3nc(NCCN4CCOCC4)ncc23)ccc1NS(=O)(=O)c1cccc(Cl)c1Cl [Example 151] | – | – | – | –
6 | > 10 | 0 | – | Cn1nc(-c2ccc(NS(=O)(=O)c3cccc(C(F)(F)F)c3)c(C(F)(F)F)c2)c2cnc(NCCN3CCOCC3)nc21 [Example 157] | – | – | – | –
7 | – | 25 | > 10 | CC(=O)c1cccc(NC(=O)Nc2ccc(-c3nn(C)c4nc(NCCN5CCOCC5)ncc34)cc2C)c1 [Example 163] | – | – | – | –
